Experimental data taken from US10246429B2, “Vinyl fluoride cyclopropyl fused thiazin-2-amine compounds as beta-secretase inhibitors and methods of use” (AMGEN INC., priority 2015, dated 2019).

What was measured:
[1] = target: T1, BACE1 (Homo sapiens (Human), UniProt P56817); test: BACE1 cell assay; format: cell-based
Target sequence in this assay (P56817 46-501, species assumed): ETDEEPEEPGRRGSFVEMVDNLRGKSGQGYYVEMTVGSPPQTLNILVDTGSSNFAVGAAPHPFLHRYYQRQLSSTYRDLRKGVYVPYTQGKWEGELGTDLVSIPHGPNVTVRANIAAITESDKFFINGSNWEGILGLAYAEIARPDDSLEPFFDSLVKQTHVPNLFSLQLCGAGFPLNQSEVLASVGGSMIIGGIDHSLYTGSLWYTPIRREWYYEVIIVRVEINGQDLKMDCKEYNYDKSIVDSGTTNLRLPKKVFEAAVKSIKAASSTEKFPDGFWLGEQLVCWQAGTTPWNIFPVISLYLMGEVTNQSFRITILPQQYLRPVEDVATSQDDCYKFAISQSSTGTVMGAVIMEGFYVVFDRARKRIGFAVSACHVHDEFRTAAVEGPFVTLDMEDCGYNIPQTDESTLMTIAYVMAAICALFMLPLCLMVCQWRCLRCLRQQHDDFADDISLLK

[2] = target: T1, BACE1; test: In vitro enzymatic BACE1 FRET assay; format: biochemical; settings: read-out: IC50 IP (μM) BACE1 Enzyme
Target sequence in this assay (P56817 46-501): as the sequence (P56817 46-501, species assumed) above
From the text: (§1) In Vitro Enzymatic BACE1 and BACE2 FRET (Fluorescence Resonance Energy Transfer) Assays (Enzyme Assay Data in Table 1)

[3] = target: BACE2 (Homo sapiens (Human), UniProt Q9Y5Z0); test: In vitro enzymatic BACE2 FRET assay; format: biochemical; settings: read-out: IC50 IP (μM) BACE2 Enzyme
Sequence of BACE2 (Q9Y5Z0 63-518): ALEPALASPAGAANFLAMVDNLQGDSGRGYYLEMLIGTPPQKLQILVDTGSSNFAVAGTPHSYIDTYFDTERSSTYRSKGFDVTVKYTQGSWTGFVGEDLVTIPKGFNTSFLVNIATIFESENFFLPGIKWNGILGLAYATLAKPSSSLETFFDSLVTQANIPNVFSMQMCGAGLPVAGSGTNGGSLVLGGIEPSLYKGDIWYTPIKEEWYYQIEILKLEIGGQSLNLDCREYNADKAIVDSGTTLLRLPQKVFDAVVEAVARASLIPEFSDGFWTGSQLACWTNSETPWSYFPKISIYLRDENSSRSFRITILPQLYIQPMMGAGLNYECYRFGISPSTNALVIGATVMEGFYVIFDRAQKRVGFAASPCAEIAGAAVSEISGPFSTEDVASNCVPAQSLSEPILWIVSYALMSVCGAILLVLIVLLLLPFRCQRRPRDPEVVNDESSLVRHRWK
From the text: as §1

[4] = target: Cathepsin D (CatD) (Homo sapiens (Human), UniProt P07339); test: CatD assay; format: biochemical; settings: read-out: IC50 IP (μM) CatD
Sequence of Cathepsin D (CatD) (P07339 65-412, species assumed): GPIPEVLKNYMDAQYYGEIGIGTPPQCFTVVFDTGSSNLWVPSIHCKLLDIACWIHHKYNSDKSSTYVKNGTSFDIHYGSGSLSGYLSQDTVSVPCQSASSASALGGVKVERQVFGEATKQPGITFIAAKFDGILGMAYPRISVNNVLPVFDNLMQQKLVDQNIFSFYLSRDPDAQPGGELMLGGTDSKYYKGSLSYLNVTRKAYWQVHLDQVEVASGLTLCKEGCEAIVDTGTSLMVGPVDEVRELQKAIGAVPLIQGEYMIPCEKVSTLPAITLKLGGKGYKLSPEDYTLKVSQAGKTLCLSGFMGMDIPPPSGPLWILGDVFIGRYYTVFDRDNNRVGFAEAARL

[5] = read-out: IC50 IP (μM) BACE1 Cell

Compound	IC50 [1, 5]	IC50 [2]	IC50 [3]	IC50 [4]	IC50 [1]
C#C[C@H](C)Oc1cnc(/C(F)=C/c2ccc(F)c([C@@]3(C)N=C(N)S[C@@]4(C(C)=O)C[C@H]43)c2)cn1 [Example 237, 1-((1S,5S,6S)-3-amino-5-(5-((Z)-2-(5-((S)-but-3-yn-2-yloxy)pyrazin-2-yl)-2-fluorovinyl)-2-fluorophenyl)-5-methyl-2-thia-4-azabicyclo[4.1.0]hept-3-en-1-yl)ethanone]	0.0339 µM	0.0032 µM	0.438 µM		
COC[C@]12C[C@H]1[C@@](C)(c1cc(/C=C(\F)c3ccc(C#N)cn3)ccc1F)N=C(N)S2 [Example 293, 6-((Z)-2-(3-((1S,5S,6S)-3-amino-1-(methoxymethyl)-5-methyl-2-thia-4-azabicyclo[4.1.0]hept-3-en-5-yl)-4-fluorophenyl)-1-fluorovinyl)nicotinonitrile]		0.0165 µM	0.192 µM	400 µM	
C[C@]1(c2cc(/C=C(\F)c3ccc(C#N)cn3)ccc2F)N=C(N)S[C@@]2(C(=O)N3CCO[C@@H]4C[C@@H]43)C[C@H]21 (single isomer, unassigned) [Example 312]	0.0008 µM	0.0012 µM	0.068 µM		
Cc1cc(C#N)cnc1/C(F)=C/c1ccc(F)c([C@@]2(C)N=C(N)S[C@@]3(C(=O)N4CCOCC4)C[C@H]32)c1 [Example 160, 6-((Z)-2-(3-((1S,5S,6S)-3-amino-5-methyl-1-(morpholine-4-carbonyl)-2-thia-4-azabicyclo[4.1.0]hept-3-en-5-yl)-4-fluorophenyl)-1-fluorovinyl)-5-methylnicotinonitrile]		0.00734 µM	0.0891 µM		0.0149 µM
C[C@]1(c2cc(/C=C(\F)c3ccc(C#N)cn3)cnc2F)N=C(N)S[C@@]2(C(=O)N3CCC(F)(F)C3)C[C@H]21 [Example 259, 6-((Z)-2-(5-((1S,5S,6S)-3-amino-1-(3,3-difluoropyrrolidine-1-carbonyl)-5-methyl-2-thia-4-azabicyclo[4.1.0]hept-3-en-5-yl)-6-fluoropyridin-3-yl)-1-fluorovinyl)nicotinonitrile]	0.0309 µM	0.0095 µM	0.113 µM		
COC(=O)[C@]12C[C@H]1[C@@](C)(c1cc(/C=C(\F)c3cnc(OCc4ncco4)cn3)ccc1F)N=C(N)S2 [Example 150, (1S,5S,6S)-methyl 3-amino-5-(2-fluoro-5-((Z)-2-fluoro-2-(5-(oxazol-2-ylmethoxy)pyrazin-2-yl)vinyl)phenyl)-5-methyl-2-thia-4-azabicyclo[4.1.0]hept-3-ene-1-carboxylate]	0.379 µM	0.0535 µM	2.42 µM		
C[C@]1(c2cc(/C=C(\F)c3ccc(C#N)cn3)ccc2F)N=C(N)S[C@@]2(C(=O)N3CCCC(F)(F)C3)C[C@H]21 [Example 324, 6-((Z)-2-(3-((1S,5S,6S)-3-amino-1-(3,3-difluoropiperidine-1-carbonyl)-5-methyl-2-thia-4-azabicyclo[4.1.0]hept-3-en-5-yl)-4-fluorophenyl)-1-fluorovinyl)nicotinonitrile]	0.0031 µM	0.0011 µM	0.019 µM		
C[C@]1(c2cc(/C=C(\F)c3ccc(C#N)cn3)cnc2F)N=C(N)S[C@@]2(C(=O)N3[C@H]4COC[C@@H]3COC4)C[C@H]21 [Example 298, 6-((Z)-2-(5-((1S,5S,6S)-3-amino-1-((1R,5R)-3,7-dioxa-9-azabicyclo[3.3.1]nonane-9-carbonyl)-5-methyl-2-thia-4-azabicyclo[4.1.0]hept-3-en-5-yl)-6-fluoropyridin-3-yl)-1-fluorovinyl)nicotinonitrile]					0.0173 µM
C#CCOc1cnc(/C(F)=C/c2ccc(F)c([C@@]3(C)N=C(N)S[C@@]4(C(=O)N5CC[C@H](F)C5)C[C@H]43)c2)cn1 [Example 303, ((1S,5S,6S)-3-amino-5-(2-fluoro-5-((Z)-2-fluoro-2-(5-(prop-2-yn-1-yloxy)pyrazin-2-yl)vinyl)phenyl)-5-methyl-2-thia-4-azabicyclo[4.1.0]hept-3-en-1-yl)((S)-3-fluoropyrrolidin-1-yl)methanone]	0.0005 µM	0.0004 µM	0.093 µM		
C#Cc1cnc(/C(F)=C/c2ccc(F)c([C@@]3(C)N=C(N)S[C@@]4(C(=O)N5CCOCC5)C[C@H]43)c2)cn1 [Example 350, ((1S,5S,6S)-3-amino-5-(5-((Z)-2-(5-ethynylpyrazin-2-yl)-2-fluorovinyl)-2-fluorophenyl)-5-methyl-2-thia-4-azabicyclo[4.1.0]hept-3-en-1-yl)(morpholino)methanone]	0.04 µM	0.004 µM	0.046 µM		
C[C@]1(c2cc(/C=C(\F)c3cnc(C#N)cn3)ccc2F)N=C(N)S[C@]2(CO)[C@H]1C2(F)F [Example 254, 5-((Z)-2-(3-((1S,5S,6R)-3-amino-7,7-difluoro-1-(hydroxymethyl)-5-methyl-2-thia-4-azabicyclo[4.1.0]hept-3-en-5-yl)-4-fluorophenyl)-1-fluorovinyl)pyrazine-2-carbonitrile trifluoromethyl acetate]	0.0894 µM				
CNC(=O)[C@]12C[C@H]1[C@@](C)(c1cc(/C=C(\F)c3cc4c(cn3)OCCO4)ccc1F)N=C(N)S2 [Example 249, (1S,5S,6S)-3-amino-5-(5-((Z)-2-(2,3-dihydro-[1,4]dioxino[2,3-c]pyridin-7-yl)-2-fluorovinyl)-2-fluorophenyl)-N,5-dimethyl-2-thia-4-azabicyclo[4.1.0]hept-3-ene-1-carboxamide]					0.336 µM
C[C@]1(c2cc(/C=C(\F)c3ccc(C#N)cn3)ccc2F)N=C(N)S[C@@]2(C(=O)N3CCN(c4ccccc4)CC3)C[C@H]21 [Example 131, 6-((Z)-2-(3-((1S,5S,6S)-3-amino-5-methyl-1-(4-phenylpiperazine-1-carbonyl)-2-thia-4-azabicyclo[4.1.0]hept-3-en-5-yl)-4-fluorophenyl)-1-fluorovinyl)nicotinonitrile]			0.015 µM	96.9 µM	
CNC(=O)[C@]12C[C@H]1[C@@](C)(c1cc(/C=C(\F)c3ccc(C#CC(C)(C)C)cn3)ccc1F)N=C(N)S2 [Example 359, (1S,5S,6S)-3-amino-5-(5-((Z)-2-(5-(3,3-dimethylbut-1-yn-1-yl)pyridin-2-yl)-2-fluorovinyl)-2-fluorophenyl)-N,5-dimethyl-2-thia-4-azabicyclo[4.1.0]hept-3-ene-1-carboxamide]			0.794 µM	26 µM	
C[C@]1(c2cc(/C=C(\F)c3cnc(C#N)cn3)ccc2F)N=C(N)S[C@@]2(C(=O)N3CCOCC3)C[C@H]21 [Example 200, 5-((Z)-2-(3-((1S,5S,6S)-3-amino-5-methyl-1-(morpholine-4-carbonyl)-2-thia-4-azabicyclo[4.1.0]hept-3-en-5-yl)-4-fluorophenyl)-1-fluorovinyl)pyrazine-2-carbonitrile]		0.001 µM			0.004 µM
COC[C@]12C[C@H]1[C@@](C)(c1cc(/C=C(\F)c3cnc(OCC4CCC4)cn3)ccc1F)N=C(N)S2 [Example 271]			1.84 µM	120 µM	
COc1ncc(/C=C(\F)c2ccc(C#N)cn2)cc1[C@@]1(C)N=C(N)S[C@@]2(C(=O)N3CC[C@@H](F)C3)C[C@H]21 [Example 184, 6-((Z)-2-(5-((1S,5S,6S)-3-amino-1-((R)-3-fluoropyrrolidine-1-carbonyl)-5-methyl-2-thia-4-azabicyclo[4.1.0]hept-3-en-5-yl)-6-methoxypyridin-3-yl)-1-fluorovinyl)nicotinonitrile]	0.014 µM		0.34 µM	125 µM	
CN(C)C(=O)[C@]12C[C@H]1[C@@](C)(c1cc(/C=C(\F)c3cnc(Br)cn3)ccc1F)N=C(N)S2 [Example 157, (1S,5S,6S)-3-amino-5-(5-((Z)-2-(5-bromopyrazin-2-yl)-2-fluorovinyl)-2-fluorophenyl)-N,N,5-trimethyl-2-thia-4-azabicyclo[4.1.0]hept-3-ene-1-carboxamide]			0.0262 µM	39.1 µM	
COC[C@]12C[C@H]1[C@@](C)(c1cc(/C=C(\F)c3cnc(OCC4CC(F)(F)C4)cn3)ccc1F)N=C(N)S2 [Example 278]			1.32 µM	199 µM	
CN(C)C(=O)[C@]12C[C@H]1[C@@](C)(c1cc(/C=C(\F)c3ncc(C#N)cn3)ccc1F)N=C(N)S2 [Example 170, (1S,5S,6S)-3-amino-5-(5-((Z)-2-(5-cyanopyrimidin-2-yl)-2-fluorovinyl)-2-fluorophenyl)-N,N,5-trimethyl-2-thia-4-azabicyclo[4.1.0]hept-3-ene-1-carboxamide]			0.00305 µM	1700 µM	
CN(C)[C@@H]1CCN(C(=O)[C@]23C[C@H]2[C@@](C)(c2cc(/C=C(\F)c4ccc(C#N)cn4)ccc2F)N=C(N)S3)C1 [Example 134, 6-((Z)-2-(3-((1S,5S,6S)-3-amino-1-((R)-3-(dimethylamino)pyrrolidine-1-carbonyl)-5-methyl-2-thia-4-azabicyclo[4.1.0]hept-3-en-5-yl)-4-fluorophenyl)-1-fluorovinyl)nicotinonitrile]			0.8 µM	400 µM	
C[C@]1(c2cc(/C=C(\F)c3ccc(C#N)cn3)ccc2F)N=C(N)S[C@@]2(C(=O)NC3CCOCC3)C[C@H]21 [Example 128, (1S,5S,6S)-3-amino-5-(5-((Z)-2-(5-cyanopyridin-2-yl)-2-fluorovinyl)-2-fluorophenyl)-5-methyl-N-(tetrahydro-2H-pyran-4-yl)-2-thia-4-azabicyclo[4.1.0]hept-3-ene-1-carboxamide]			0.0892 µM	144 µM	
CN(C)C(=O)[C@]12C[C@H]1[C@@](C)(c1cc(/C=C(\F)c3cc4nccnc4cn3)ccc1F)N=C(N)S2 [Example 247, (1S,5S,6S)-3-amino-5-(2-fluoro-5-((Z)-2-fluoro-2-(pyrido[3,4-b]pyrazin-7-yl)vinyl)phenyl)-N,N,5-trimethyl-2-thia-4-azabicyclo[4.1.0]hept-3-ene-1-carboxamide]			0.385 µM	1190 µM	
